In assay [1] the target is T1, GST-tagged human ROCK1 catalytic domain 1-477 (Homo sapiens, UniProt Q13464).
T1 construct: human ROCK1 catalytic domain 1-477 from Carna Biosciences (cat #01-109); purchased Carna Biosciences 01-109; host or cells: baculovirus expression system
Briefly: Isolated Enzyme Assay, ROCK1 (LANCE Ultra ULight-CREBtide FRET). It is filed as biochemical. Conditions: 30 μM highest concentration tested, read-out: Results from Isolated Enzyme Assay IC50 (μM) ROCK1. Summed up: (§1)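 Baculovirus-expressed constitutively active ROCK1 or ROCK2 (2 nM) incubated 90 min at room temperature with 50 nM ULight-CREBtide and compound (0.5% DMSO) in Tris pH 7.5, MgCl2, EGTA, Tween-20, DTT. EDTA-stopped; phospho-substrate detected by Eu-anti-phospho-CREB TR-FRET after 60 min; IC50 by non-linear regression.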

For assay [2], the target named is T2, GST-tagged human ROCK2 catalytic domain 1-553 (Homo sapiens, UniProt O75116).
T2 construct: GST-tagged human ROCK2 catalytic domain 1-553 from Carna Biosciences (Cat #01-110); purchased Carna Biosciences 01-110; host or cells: baculovirus expression system
T2 sequence (O75116 1-553): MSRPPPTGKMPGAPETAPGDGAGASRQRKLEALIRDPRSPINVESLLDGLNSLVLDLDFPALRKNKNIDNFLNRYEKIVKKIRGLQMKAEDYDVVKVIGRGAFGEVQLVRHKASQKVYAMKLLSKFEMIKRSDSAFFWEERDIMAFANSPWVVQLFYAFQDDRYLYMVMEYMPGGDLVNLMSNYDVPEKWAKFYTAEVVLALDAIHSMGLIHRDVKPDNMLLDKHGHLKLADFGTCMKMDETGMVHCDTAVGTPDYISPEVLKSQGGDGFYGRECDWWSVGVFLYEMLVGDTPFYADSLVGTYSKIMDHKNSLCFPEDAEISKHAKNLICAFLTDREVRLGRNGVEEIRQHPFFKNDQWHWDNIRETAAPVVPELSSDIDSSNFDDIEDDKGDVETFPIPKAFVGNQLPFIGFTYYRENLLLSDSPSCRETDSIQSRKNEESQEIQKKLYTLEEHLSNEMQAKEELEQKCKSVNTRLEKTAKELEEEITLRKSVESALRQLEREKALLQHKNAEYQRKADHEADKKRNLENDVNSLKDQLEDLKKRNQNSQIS
As to the kind of experiment: Isolated Enzyme Assay, ROCK2 (LANCE Ultra ULight-CREBtide FRET). It counts as biochemical. The note with it: 30 μM highest concentration tested, read-out: Results from Isolated Enzyme Assay IC50 (μM) ROCK2. Summed up: as §1

A further assay concerns the target T3, ROCK1 (Homo sapiens, UniProt Q13464).
T3 construct: endogenous in cells; host or cells: HAP1 knockout cells
As to the kind of experiment: Cell-Based Assay, ROCK1 (HAP1 knockout cells, phospho-MYPT1 Thr853 ELISA). The note with it: read-out: Results from Cell-Based Assay IC50 (μM) ROCK1. The protocol:
Part II—Procedure for Determining ROCK Inhibition Ability of Test Compounds Using a Cell-Base Assay
The Cell-Based Assay for determining ROCK inhibition ability of test compounds utilized a genetically modified HAP1 cell line engineered to eliminate expression of either ROCK1 or ROCK2. In the procedure, HAP1 knockout cells are grown in Iscove's Modified Dulbecco's Medium that is additionally supplemented with 10% fetal bovine and 1x antibiotic-antimycotic mixture. Cells are plated in 96 well tissue culture plates at 1×10^5 cells/well (100 μL, of cells at 1×10^6/mL). Test compounds are solubilized in DMSO and diluted into the same media used to grow the cells. A 100 μL, aliquot of each compound dilution in media is added to each well containing the HAP1 cells and incubated at 37° C. for 30 minutes. Following compound incubation, the cells are pelleted by centrifugation at 1800 rpm for 5 minutes at 4° C. Media is removed from the cell pellet and the cells lysed and de-salted. An 80 μL, aliquot of each cell lysate is added to a single well of a 96-well high binding ELISA plate which has been pre-coated with a MYPT1 capture antibody and incubated at 4° C. overnight. The following day the ELISA plate is washed 4× with 0.05% Tween-20 in PBS. After washing, an anti-phospho-MYPT1 (Thr853) antibody is added and allowed to bind for 1 hour at room temperature. The wash step is repeated, and then an anti-rabbit HRP detection antibody is added and allowed to incubate at room temperature for 1 hour. The wash step is then repeated and 100 μL/well 1-Step™ Ultra TMB substrate is added to the ELISA plate and allowed to develop for approximately 5 minutes. The reaction is stopped by addition of H2SO4. Absorbance is read at 450 OD. Data is analyzed using GraphPad Prism software to calculate the 50% inhibitory concentration of test compound (IC50).

For the next assay, the target named is T4, ROCK2 (Homo sapiens, UniProt O75116).
T4 construct: endogenous in cells; host or cells: HAP1 knockout cells
T4 sequence (O75116 whole entry): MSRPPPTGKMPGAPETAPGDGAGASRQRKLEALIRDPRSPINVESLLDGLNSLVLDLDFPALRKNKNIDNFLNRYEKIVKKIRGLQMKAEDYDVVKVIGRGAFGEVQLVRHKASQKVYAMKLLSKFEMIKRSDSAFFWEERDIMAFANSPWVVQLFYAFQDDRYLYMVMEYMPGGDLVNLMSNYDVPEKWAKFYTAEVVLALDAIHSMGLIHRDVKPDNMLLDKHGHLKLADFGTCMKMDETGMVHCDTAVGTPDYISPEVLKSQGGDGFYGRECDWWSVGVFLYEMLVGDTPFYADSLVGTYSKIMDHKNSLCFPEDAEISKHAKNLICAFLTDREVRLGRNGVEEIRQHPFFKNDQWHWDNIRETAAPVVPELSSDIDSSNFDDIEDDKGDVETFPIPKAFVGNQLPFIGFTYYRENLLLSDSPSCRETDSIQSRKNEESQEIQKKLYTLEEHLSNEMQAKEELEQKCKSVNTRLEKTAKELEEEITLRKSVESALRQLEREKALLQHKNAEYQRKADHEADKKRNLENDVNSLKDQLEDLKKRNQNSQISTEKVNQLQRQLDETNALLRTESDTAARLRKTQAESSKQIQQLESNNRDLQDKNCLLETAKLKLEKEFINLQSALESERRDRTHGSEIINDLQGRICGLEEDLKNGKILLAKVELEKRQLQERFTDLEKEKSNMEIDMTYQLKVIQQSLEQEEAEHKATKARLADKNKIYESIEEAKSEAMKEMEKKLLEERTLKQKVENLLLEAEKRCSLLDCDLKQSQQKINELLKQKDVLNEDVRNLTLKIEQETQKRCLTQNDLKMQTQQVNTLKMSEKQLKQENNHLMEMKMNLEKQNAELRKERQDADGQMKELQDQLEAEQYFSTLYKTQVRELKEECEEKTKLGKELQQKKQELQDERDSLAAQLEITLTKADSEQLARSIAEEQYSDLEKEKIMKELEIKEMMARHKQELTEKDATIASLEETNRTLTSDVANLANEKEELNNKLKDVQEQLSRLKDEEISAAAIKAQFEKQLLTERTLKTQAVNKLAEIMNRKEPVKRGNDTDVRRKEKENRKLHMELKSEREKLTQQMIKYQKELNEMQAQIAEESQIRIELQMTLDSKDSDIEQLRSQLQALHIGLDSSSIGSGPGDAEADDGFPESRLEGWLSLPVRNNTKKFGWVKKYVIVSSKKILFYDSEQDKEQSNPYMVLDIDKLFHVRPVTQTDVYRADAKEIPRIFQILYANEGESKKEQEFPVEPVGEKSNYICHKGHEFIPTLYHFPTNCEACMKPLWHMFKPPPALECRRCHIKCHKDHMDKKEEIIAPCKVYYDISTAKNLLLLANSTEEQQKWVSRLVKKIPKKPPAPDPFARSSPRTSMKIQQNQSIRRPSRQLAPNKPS
Briefly: Cell-Based Assay, ROCK2 (HAP1 knockout cells, phospho-MYPT1 Thr853 ELISA). The note with it: read-out: Results from Cell-Based Assay IC50 (μM) ROCK2.

The conditions of assay [3]: porcine model of IL-1 beta-induced coronary stenosis; cited from earlier work.
The conditions of assay [4]: rat stroke model; cited from earlier work.
Setting [5] is: phospho-MYPT1, 30 μM highest concentration tested.

Read-outs that look alike come from different tables or passages of the source.

T3 sequence (Q13464 whole entry): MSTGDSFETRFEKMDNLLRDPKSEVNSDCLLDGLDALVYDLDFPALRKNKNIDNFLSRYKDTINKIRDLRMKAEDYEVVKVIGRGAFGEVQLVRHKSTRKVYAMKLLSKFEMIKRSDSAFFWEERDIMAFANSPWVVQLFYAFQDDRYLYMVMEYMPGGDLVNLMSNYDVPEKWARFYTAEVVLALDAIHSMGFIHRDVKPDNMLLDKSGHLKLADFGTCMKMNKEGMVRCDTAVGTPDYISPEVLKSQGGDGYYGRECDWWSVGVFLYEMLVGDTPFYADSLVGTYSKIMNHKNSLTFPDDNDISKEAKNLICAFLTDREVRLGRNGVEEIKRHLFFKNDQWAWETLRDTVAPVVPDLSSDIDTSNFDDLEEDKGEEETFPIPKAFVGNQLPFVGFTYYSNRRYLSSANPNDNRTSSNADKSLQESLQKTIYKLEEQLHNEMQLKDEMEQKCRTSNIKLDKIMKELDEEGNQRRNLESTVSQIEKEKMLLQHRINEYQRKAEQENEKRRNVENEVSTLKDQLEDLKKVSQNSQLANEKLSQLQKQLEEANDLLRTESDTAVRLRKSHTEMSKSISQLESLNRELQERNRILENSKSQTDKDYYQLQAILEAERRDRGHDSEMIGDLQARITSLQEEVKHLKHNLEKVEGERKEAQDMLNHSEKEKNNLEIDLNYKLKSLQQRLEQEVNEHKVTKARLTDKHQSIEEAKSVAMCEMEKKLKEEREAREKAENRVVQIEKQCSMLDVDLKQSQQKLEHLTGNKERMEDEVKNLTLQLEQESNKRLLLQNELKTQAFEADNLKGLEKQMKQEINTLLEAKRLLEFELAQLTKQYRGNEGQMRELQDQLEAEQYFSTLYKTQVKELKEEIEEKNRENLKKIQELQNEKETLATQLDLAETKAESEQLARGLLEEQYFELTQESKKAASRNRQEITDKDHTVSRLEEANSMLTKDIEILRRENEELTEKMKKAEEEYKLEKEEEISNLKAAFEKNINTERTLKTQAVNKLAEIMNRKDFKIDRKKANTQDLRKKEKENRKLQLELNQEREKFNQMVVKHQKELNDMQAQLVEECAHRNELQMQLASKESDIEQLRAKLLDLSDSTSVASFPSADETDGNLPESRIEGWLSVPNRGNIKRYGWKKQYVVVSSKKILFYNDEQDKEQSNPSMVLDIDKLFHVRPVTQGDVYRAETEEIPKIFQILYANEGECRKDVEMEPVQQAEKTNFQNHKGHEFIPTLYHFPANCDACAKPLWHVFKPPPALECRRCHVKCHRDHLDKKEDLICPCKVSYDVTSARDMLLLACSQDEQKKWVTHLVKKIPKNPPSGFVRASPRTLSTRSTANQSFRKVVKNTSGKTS
T1 sequence (Q13464 1-477): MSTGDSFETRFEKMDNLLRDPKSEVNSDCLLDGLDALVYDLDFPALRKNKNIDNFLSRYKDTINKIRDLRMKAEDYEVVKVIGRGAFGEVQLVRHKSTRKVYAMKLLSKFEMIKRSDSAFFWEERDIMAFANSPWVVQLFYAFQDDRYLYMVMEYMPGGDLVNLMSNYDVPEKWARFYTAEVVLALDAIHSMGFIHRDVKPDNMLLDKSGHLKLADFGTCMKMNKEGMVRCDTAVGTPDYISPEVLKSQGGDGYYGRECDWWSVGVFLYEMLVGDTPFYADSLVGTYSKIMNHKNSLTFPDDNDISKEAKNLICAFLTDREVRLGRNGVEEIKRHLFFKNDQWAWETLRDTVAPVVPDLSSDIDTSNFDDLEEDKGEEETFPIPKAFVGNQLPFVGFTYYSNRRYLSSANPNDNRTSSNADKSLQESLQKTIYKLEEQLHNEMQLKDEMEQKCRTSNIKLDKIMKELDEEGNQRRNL

For `Cn1nccc1C(=O)Nc1cc(-c2nsc(Nc3ccc4[nH]ncc4c3Cl)n2)cn(C)c1=O` [IV-6], the 50% inhibitory concentration (IC50) in assay [1] (isolated enzyme assay) is less than 1 µM; in assay [2] (isolated enzyme assay), less than 1 µM; at ROCK1 (numeric bound), greater than 10 µM; at ROCK2 (class symbols) it was less than 1 µM.
On to `Cc1cc(NC(=O)c2ccnn2C)cc(-c2nsc(Nc3ccc4[nH]ncc4c3Cl)n2)n1` [IV-13], for which the IC50 in assay [1] (isolated enzyme assay) was less than 1 µM; in assay [2] (isolated enzyme assay), less than 1 µM; at ROCK1 (numeric bound) it was greater than 10 µM; at ROCK2 (numeric bound), greater than 10 µM.
In the case of `Cc1coc(-c2cc(-c3nsc(Nc4ccc5[nH]ncc5c4Cl)n3)ccn2)n1` [IV-59], the IC50 in assay [1] (isolated enzyme assay) was greater than 30 µM; in assay [2] (isolated enzyme assay) it was less than 1 µM; at ROCK1 (numeric bound), greater than 10 µM; on ROCK2 (class symbols), less than 1 µM.
Turning to `O=S(=O)(c1cccc2cnccc12)N1CCCNCC1` [fasudil], the coronary stenosis result in assay [3] is given as “progressively reduce coronary stenosis”. The “infarct size and neurologic deficit” value in assay [4] was “reduce both the infarct size and neurologic deficit”.
As to `O=C(NC1CCCC1)c1cc(-c2nsc(Nc3ccc4[nH]ncc4c3Cl)n2)ccc1F` [IV-48], the IC50 in assay [1] (isolated enzyme assay) was less than 1 µM; in assay [2] (isolated enzyme assay), less than 1 µM; on ROCK1 (class symbols) it was 1 to 15 µM; on ROCK2 (class symbols), less than 1 µM.
Take `CC(C)c1cc(C(=O)Nc2cccc(-c3nsc(Nc4ccc5[nH]ncc5c4Cl)n3)c2)n(C)n1` [IV-63]: the IC50 was less than 1 µM in assay [1] (isolated enzyme assay), less than 1 µM in assay [2] (isolated enzyme assay), 1 to 15 µM on ROCK1 (class symbols) and less than 1 µM on ROCK2 (class symbols).
Turning to `Cc1cc(C(=O)Nc2cncc(-c3nsc(Nc4ccc5[nH]ncc5c4Cl)n3)c2)n(C)n1` [IV-42], the IC50 was greater than 30 µM in assay [1] (isolated enzyme assay), greater than 30 µM in assay [2] (isolated enzyme assay), greater than 10 µM on ROCK1 (numeric bound) and less than 1 µM on ROCK2 (class symbols).
Consider `CC(C)NC(=O)c1cc(-c2nsc(Nc3ccc4[nH]ncc4c3Cl)n2)ccc1F` [IV-14], for which the IC50 in assay [1] (isolated enzyme assay) was less than 1 µM; in assay [2] (isolated enzyme assay), less than 1 µM; at ROCK1 (class symbols) it was 1 to 15 µM; on ROCK2 (class symbols), less than 1 µM.
In the case of `O=C(Nc1cccc(-c2nsc(Nc3ccc4[nH]ncc4c3Cl)n2)c1)c1ccccn1` [IV-74], the IC50 in assay [1] (isolated enzyme assay) is less than 1 µM; in assay [2] (isolated enzyme assay) it was less than 1 µM; at ROCK1 (class symbols), 1 to 15 µM; on ROCK2 (class symbols), less than 1 µM.
Consider `O=C(Nc1cccc(-c2nsc(Nc3ccc4[nH]ncc4c3Cl)n2)c1)c1cc[nH]n1` [IV-75], for which the half-maximal inhibitory concentration (IC50) was less than 1 µM in assay [1] (isolated enzyme assay), less than 1 µM in assay [2] (isolated enzyme assay), greater than 10 µM at ROCK1 (numeric bound) and less than 1 µM at ROCK2 (class symbols).
Take `COc1ncc(C(=O)Nc2cc(-c3nsc(Nc4ccc5[nH]ncc5c4Cl)n3)cn(C)c2=O)cn1` [IV-7]: the IC50 in assay [1] (isolated enzyme assay) is greater than 30 µM; in assay [2] (isolated enzyme assay), less than 1 µM; at ROCK1 (numeric bound), greater than 10 µM; on ROCK2 (numeric bound) it was greater than 10 µM.
As to `Cc1cnc(-c2cc(-c3nsc(Nc4ccc5[nH]ncc5c4Cl)n3)cn(C)c2=O)o1` [IV-12], the half-maximal inhibitory concentration (IC50) in assay [1] (isolated enzyme assay) is less than 1 µM; in assay [2] (isolated enzyme assay) it was less than 1 µM; at ROCK1 (numeric bound), greater than 10 µM; at ROCK2 (class symbols), less than 1 µM.
As for `CN1CCC(NC(=O)c2cc(-c3nsc(Nc4ccc5[nH]ncc5c4Cl)n3)ccc2F)CC1` [IV-46], the half-inhibitory concentration (IC50) was less than 1 µM in assay [1] (isolated enzyme assay), less than 1 µM in assay [2] (isolated enzyme assay), greater than 10 µM at ROCK1 (numeric bound) and less than 1 µM on ROCK2 (class symbols).
With `CC1(C)CCN(c2cccc(-c3nsc(Nc4ccc5[nH]ncc5c4Cl)n3)c2)C1=O` [IV-56], the IC50 was less than 1 µM in assay [1] (isolated enzyme assay), less than 1 µM in assay [2] (isolated enzyme assay), 1 to 15 µM at ROCK1 (class symbols) and less than 1 µM at ROCK2 (class symbols).
In the case of `Cn1cnc2c(-c3nsc(Nc4ccc5[nH]ncc5c4Cl)n3)cccc21` [IV-82], the IC50 in assay [1] (isolated enzyme assay) is less than 1 µM; in assay [2] (isolated enzyme assay) it was 1 to 15 µM; at ROCK1 (class symbols) it was 1 to 15 µM; at ROCK2 (class symbols), less than 1 µM.
Take `O=C1OCCN1c1cccc(-c2nsc(Nc3ccc4[nH]ncc4c3Cl)n2)c1` [IV-55]: the concentration for half-maximal inhibition (IC50) in assay [1] (isolated enzyme assay) was less than 1 µM; in assay [2] (isolated enzyme assay), less than 1 µM; at ROCK1 (class symbols), 1 to 15 µM; on ROCK2 (class symbols), less than 1 µM.
Take `Cn1nccc1C(=O)Nc1cccc(-c2nsc(Nc3ccc4[nH]ncc4c3Cl)n2)c1` [Compound A-3]: the IC50 in assay [1] (isolated enzyme) was less than 1 µM; in assay [2] (isolated enzyme) it was less than 1 µM; on ROCK1 (setting [5]), 1 to 15 µM; at ROCK2 (setting [5]) it was less than 1 µM.
